Patent publication US20110039762A1, “TARGETED ANTIMICROBIAL MOIETIES” (C3 JIAN, INC., priority 2009, published 2011)
“Also recorded” adds a separate entry of the source. Square brackets hold non-standard residues; d marks the D form. Ends that are not written are not given here. Aib = CC(C)(N)C(=O)O

tested on: microorganisms (e.g., bacteria, yeasts, fungi); test: Targeting peptide binding to target microorganisms (Table 3); conditions: peptide binding in aqueous buffers varied by peptide solubility; preferably 1x PBS

Substance | Target(s) (microorganisms bound by the targeting peptide)
PF-648 (ARRYPAAGS; Peptide with targeting and/or antimicrobial activity) | S. mutans; also recorded: E. coli
PF-650 (IRSDQPGRQSRSSPRWPTGAGRHR; Peptide with targeting and/or antimicrobial activity) | Mycobacteria spp
PF-669 (RADRIESYPADGDRVITLWRNPYR; Peptide with targeting and/or antimicrobial activity) | Mycobacteria spp
PF-671 (TVSAFRTVH; Peptide with targeting and/or antimicrobial activity) | S. mutans; also recorded: E. coli
PF-673 (VRRLRM; Peptide with targeting and/or antimicrobial activity) | S. mutans; also recorded: E. coli
PF-674 (DGCDSEPALTYR; Peptide with targeting and/or antimicrobial activity) | S. mutans; also recorded: E. coli
PF-676 (AEYRGL; Peptide with targeting and/or antimicrobial activity) | S. mutans; also recorded: E. coli
PF-678 (RDRRWTRRDMYDWLESARV; Peptide with targeting and/or antimicrobial activity) | Mycobacteria spp
PF-679 (CRARFIRR; Peptide with targeting and/or antimicrobial activity) | S. mutans; also recorded: E. coli
PF-689 (SAPSG; Peptide with targeting and/or antimicrobial activity) | S. mutans; also recorded: E. coli
PF-701 (PRGAQSGHG; Peptide with targeting and/or antimicrobial activity) | S. mutans
PF-703 (MTTVDNIVGLVIAVALMAFLFAALLFPEKF; Peptide with targeting and/or antimicrobial activity) | Mycobacteria spp
PF-705 (GEEEGTVAD; Peptide with targeting and/or antimicrobial activity) | S. mutans; also recorded: E. coli
PF-706 (LGYGAWIGCGLGLNGFHRID; Peptide with targeting and/or antimicrobial activity) | L. pneumophila
PF-707 (IDPESIVTTNNKQDNVDEQ; Peptide with targeting and/or antimicrobial activity) | S. mutans; also recorded: E. coli
PF-709 (NKKHSPMD; Peptide with targeting and/or antimicrobial activity) | S. mutans
PF-711 (KTAGPTGTIYKTN; Peptide with targeting and/or antimicrobial activity) | S. mutans
PF-712 (QIYRHVHKVQAKSANLRLY; Peptide with targeting and/or antimicrobial activity) | S. mutans; also recorded: E. coli
PF-714 (FVVTQRMLRMYKK; Peptide with targeting and/or antimicrobial activity) | L. pneumophila
PF-716 (HGENHHHKSDEKDNDSSEKKD; Peptide with targeting and/or antimicrobial activity) | S. mutans
PF-717 (PQSEVTFENIYAPKANGGGLYGI; Peptide with targeting and/or antimicrobial activity) | E. coli
PF-720 (SLDMGK; Peptide with targeting and/or antimicrobial activity) | S. mutans
PF-724 (CYRFLTPKRPTRIS; Peptide with targeting and/or antimicrobial activity) | L. pneumophila
PF-727 (AYARCRHDYPFTLGQMQTH; Peptide with targeting and/or antimicrobial activity) | S. mutans; also recorded: E. coli
PF-728 (AIGQEQDRREYYYYSGYPYYY; Peptide with targeting and/or antimicrobial activity) | S. mutans; also recorded: E. coli
PF-731 (RHKLIRLPLSESVFCFLNNPKI; Peptide with targeting and/or antimicrobial activity) | L. pneumophila
PF-732 (DRPSQTTHHTLSSSRITGPS; Peptide with targeting and/or antimicrobial activity) | E. coli

Substance | Target(s) (microorganisms bound by the targeting peptide)
PF-733 (VISRQMGSEAVLELFIIM; Peptide with targeting and/or antimicrobial activity) | S. mutans; also recorded: E. coli
PF-735 (YDPLFPNDKN; Peptide with targeting and/or antimicrobial activity) | S. mutans; also recorded: E. coli
PF-750 (AESSPAKTTA; Peptide with targeting and/or antimicrobial activity) | M. luteus; also recorded: C. jeikeium
PF-751 (AESSPAQETT; Peptide with targeting and/or antimicrobial activity) | S. epidermidis; also recorded: E. coli; also recorded: C. albicans; also recorded: C. jeikeium
PF-765 (YLYWEVEHKPIIAKRDAYYAQLRKQKEIEEGA; Peptide with targeting and/or antimicrobial activity) | S. epidermidis and M. luteus and E. coli and MRSA and E. faecalis and C. jeikeium
PF-766 (DAYYAQLRKQKEIEEGA; Peptide with targeting and/or antimicrobial activity) | S. epidermidis and M. luteus and C. albicans and MRSA and E. faecalis and C. jeikeium
PF-767 (DGKQGEPVALKPTDN; Peptide with targeting and/or antimicrobial activity) | S. epidermidis and M. luteus and E. coli and MRSA and S. pneumoniae and E. faecalis and C. jeikeium
PF-768 (GFRGGKRGGARG; Peptide with targeting and/or antimicrobial activity) | S. epidermidis; also recorded: S. pneumoniae; also recorded: E. faecalis; also recorded: C. jeikeium
PF-772 (TKESSS; Peptide with targeting and/or antimicrobial activity) | S. epidermidis and C. albicans and MRSA and S. pneumoniae and C. jeikeium
PF-773 (TLKESK; Peptide with targeting and/or antimicrobial activity) | S. epidermidis; also recorded: C. albicans; also recorded: C. jeikeium
PF-777 (PGADGKLAEASAAIARLVRS; Peptide with targeting and/or antimicrobial activity) | Mycobacteria spp.
PF-778 (MNLILTAHGT; Peptide with targeting and/or antimicrobial activity) | Mycobacteria spp.
PF-779 (IYGDFFNFYLCDISLKVNGLQPGGPVRTVKLFGQPTGRCTPQ; Peptide with targeting and/or antimicrobial activity) | Mycobacteria spp.
PF-780 (AVYDALVALAAAEHRAELATRDARAKDTYEKIGVHVVVAA; Peptide with targeting and/or antimicrobial activity) | Mycobacteria spp.
PF-781 (PLVVVNHRRAERSRG; Peptide with targeting and/or antimicrobial activity) | Mycobacteria spp.
PF-782 (TGPRRGIDLTSNRALSEVLDEGLELNSRK; Peptide with targeting and/or antimicrobial activity) | Mycobacteria spp.
PF-783 (FTSEVRGVFTYRVNKAGLITNMRGYWNLDMMTFGNQE; Peptide with targeting and/or antimicrobial activity) | Mycobacteria spp.
PF-784 (MAMTTVDNIVGLVIAVALMAFLFAALLFPEKF; Peptide with targeting and/or antimicrobial activity) | Mycobacteria spp.
PF-785 (MRPQHSPAGKAFVVKKITHEQS; Peptide with targeting and/or antimicrobial activity) | Mycobacteria spp.
PF-786 (LSERERRRLKRGII; Peptide with targeting and/or antimicrobial activity) | Mycobacteria spp.
PF-787 (MTERQRRALLKQHPEVVSWSDYLEKRKRRTGTAG; Peptide with targeting and/or antimicrobial activity) | Mycobacteria spp.
PF-788 (GLITVFAGTARILQLRRAAKKTHAAALR; Peptide with targeting and/or antimicrobial activity) | Mycobacteria spp.
PF-789 (PRGAQSGHG; Peptide with targeting and/or antimicrobial activity) | Mycobacteria spp.
PF-790 (PAGPDHLDQRDHR; Peptide with targeting and/or antimicrobial activity) | Mycobacteria spp.
PF-791 (IFLTTQNTDYSEHNAA; Peptide with targeting and/or antimicrobial activity) | S. mutans
PF-792 (ALHASGIQAI; Peptide with targeting and/or antimicrobial activity) | S. mutans
PF-793 (YTQ[Aib]NNASAYAMLLTNKDTVP) | S. mutans
